Experimental data: ChEMBL document CHEMBL1201862, “PubChem BioAssay data set” (2004)
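Following 48 hours of exposure in 96-well plates, responses at five concentrations were used to interpolate endpoints linearly. GI50 marks 50% less growth.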 Activity calls are given as the source filed them. No stated cut-off is given here; in the data, active = GI50 up to about 1.1 µM and inactive = higher.

Key:
Experiment in all cases: NCI anticancer screen, dose series, 48 h
SNB-19 = tested on: SNB-19
OVCAR-8 = tested on: OVCAR-8
NCI-H226 = tested on: NCI-H226
SK-MEL-2 = tested on: SK-MEL-2
UACC-257 = tested on: UACC-257
T47D = tested on: T47D
HCT-15 = tested on: HCT-15
HT-29 = tested on: HT-29
M14 = tested on: M14
OVCAR-3 = tested on: OVCAR-3
SK-MEL-28 = tested on: SK-MEL-28
NCI-H460 = tested on: NCI-H460
HCT-116 = tested on: HCT-116
IGROV-1 = tested on: IGROV-1
A549 = tested on: A549
K562 = tested on: K562
OVCAR-4 = tested on: OVCAR-4
LOX IMVI = tested on: LOX IMVI
HCC 2998 = tested on: HCC 2998

Row | Structure (SMILES) | GI50 (SNB-19) | GI50 (OVCAR-8) | GI50 (NCI-H226) | GI50 (SK-MEL-2) | GI50 (UACC-257) | GI50 (T47D) | GI50 (HCT-15) [µM] | GI50 (HT-29) | GI50 (M14) | GI50 (OVCAR-3) | GI50 (SK-MEL-28) | GI50 (NCI-H460) | GI50 (HCT-116) | GI50 (IGROV-1) | GI50 (A549) | GI50 (K562) | GI50 (OVCAR-4) | GI50 (LOX IMVI) | GI50 (HCC 2998)
1 | c1ccc2c(c1)ccc1ncccc12 | 85.7 µM (inactive) | > 100 µM (inactive) | > 100 µM (inactive) | > 100 µM (inactive) | > 100 µM (inactive) | > 100 µM (inactive) | 58.2 | > 100 µM (inactive) | > 100 µM (inactive) | > 100 µM (inactive) | > 100 µM (inactive) | > 100 µM (inactive) | > 100 µM (inactive) | > 100 µM (inactive) | > 100 µM (inactive) | > 100 µM (inactive) | > 100 µM (inactive) | > 100 µM (inactive) | > 100 µM (inactive)
2 | O=C1OC(C2Cc3ccc4ccccc4c3C2=O)c2ccccc21 (stereo not given) | 23.2 µM (inactive) | 35.6 µM (inactive) | 19.5 µM (inactive) | 47.8 µM (inactive) | 70.8 µM (inactive) | 63 µM (inactive) | 34.8 |  | 92.9 µM (inactive) | 30.5 µM (inactive) | 55.5 µM (inactive) | 49.7 µM (inactive) | 41.4 µM (inactive) | 39.4 µM (inactive) | 36.9 µM (inactive) | 57.7 µM (inactive) | 24.4 µM (inactive) | 38 µM (inactive) | 55.5 µM (inactive)
3 | CCc1nnc(S)n1/N=C\c1ccc(-c2ccccc2Cl)o1 | 45.3 µM (inactive) | 24.3 µM (inactive) | 17.5 µM (inactive) | 30.8 µM (inactive) | 53.5 µM (inactive) | 25.1 µM (inactive) | 28.2 | 33.4 µM (inactive) | 33.2 µM (inactive) | 40.6 µM (inactive) |  | 32.4 µM (inactive) | 23.8 µM (inactive) | 38.7 µM (inactive) | 32.6 µM (inactive) | 21.9 µM (inactive) | 39.4 µM (inactive) | 23.5 µM (inactive) | 27.3 µM (inactive)
4 | N#Cc1c2ccc([N+](=O)[O-])cc2c(=O)n2c1sc1ccccc12 | 10.5 µM (inactive) | 35.2 µM (inactive) | 17 µM (inactive) | 17.3 µM (inactive) | 78.5 µM (inactive) | 14.8 µM (inactive) | 22.2 | 33.7 µM (inactive) |  |  | 17.6 µM (inactive) | 27.5 µM (inactive) | 11.1 µM (inactive) |  | 12.2 µM (inactive) | 11.1 µM (inactive) | 20.6 µM (inactive) | 25.2 µM (inactive) | 8.05 µM (inactive)
5 | CCOC(NC(=O)CC)(C(F)(F)F)C(F)(F)F | > 100 µM (inactive) | > 100 µM (inactive) | > 100 µM (inactive) | > 100 µM (inactive) | > 100 µM (inactive) | > 100 µM (inactive) | > 100 | > 100 µM (inactive) | > 100 µM (inactive) | > 100 µM (inactive) | > 100 µM (inactive) | > 100 µM (inactive) | > 100 µM (inactive) | > 100 µM (inactive) | > 100 µM (inactive) | > 100 µM (inactive) |  | > 100 µM (inactive) | > 100 µM (inactive)
6 | C=CCn1c(-c2ccc(Cl)cc2)cs/c1=N\c1ccccc1OC | > 95.5 µM (inactive) | 27 µM (inactive) | > 64.7 µM (inactive) | > 74.3 µM (inactive) | 7.46 µM (inactive) | 2.34 µM (inactive) | 50 |  | 10.1 µM (inactive) | 40.8 µM (inactive) | > 47.2 µM (inactive) | 36 µM (inactive) | 9.31 µM (inactive) | > 100 µM (inactive) | 33 µM (inactive) | 3.44 µM (inactive) | > 58.5 µM (inactive) | 41.1 µM (inactive) | > 100 µM (inactive)
7 | C=CCN(c1cc(OC)c2[nH]c(C(=O)O)c(C)c2c1[N+](=O)[O-])S(C)(=O)=O | > 100 µM (inactive) | > 100 µM (inactive) | > 100 µM (inactive) | > 100 µM (inactive) | > 100 µM (inactive) | > 100 µM (inactive) | > 100 |  | > 100 µM (inactive) | > 100 µM (inactive) | > 100 µM (inactive) | > 100 µM (inactive) | > 100 µM (inactive) | > 100 µM (inactive) | > 100 µM (inactive) | > 100 µM (inactive) | > 100 µM (inactive) | > 100 µM (inactive) | > 100 µM (inactive)
8 | C=CC1(C)OC2(CCN(C(=O)OCC)CC2)OC1C (stereo not given) | > 100 µM (inactive) | > 100 µM (inactive) | > 100 µM (inactive) | > 100 µM (inactive) | > 100 µM (inactive) | > 100 µM (inactive) | > 100 | > 100 µM (inactive) | > 100 µM (inactive) | > 100 µM (inactive) | > 100 µM (inactive) | > 100 µM (inactive) |  | > 100 µM (inactive) | > 100 µM (inactive) | 45.7 µM (inactive) | > 100 µM (inactive) | > 100 µM (inactive) | > 100 µM (inactive)
9 | C[C@@H]1OC(=O)/C(=C\N(C)C)[C@H]2CC(=O)N(CCc3cn(S(=O)(=O)C(F)(F)F)c4ccccc34)C[C@H]12 | > 100 µM (inactive) |  | > 100 µM (inactive) | > 100 µM (inactive) | > 100 µM (inactive) | > 100 µM (inactive) | > 100 |  | > 100 µM (inactive) | > 100 µM (inactive) | > 100 µM (inactive) | > 100 µM (inactive) | > 100 µM (inactive) | > 100 µM (inactive) | > 100 µM (inactive) | > 100 µM (inactive) | > 100 µM (inactive) | > 100 µM (inactive) | > 100 µM (inactive)
10 | CCOC(=O)c1ccc(/N=c2/[nH]c3ccccc3s/c2=N/c2ccc(C(=O)OCC)cc2)cc1 | > 100 µM (inactive) | 86.7 µM (inactive) | > 100 µM (inactive) | > 100 µM (inactive) | > 100 µM (inactive) | > 100 µM (inactive) | > 100 | 70.3 µM (inactive) |  |  | > 100 µM (inactive) | 40.6 µM (inactive) | 53.1 µM (inactive) | > 100 µM (inactive) | 95.7 µM (inactive) | > 100 µM (inactive) | 33.6 µM (inactive) | > 100 µM (inactive) | > 100 µM (inactive)
11 | S=C1C(CCCOCc2ccccc2)C2CCCC23CC2(CCN13)OCCS2 (stereo not given) | > 10 µM (inactive) | > 10 µM (inactive) | > 10 µM (inactive) | > 10 µM (inactive) | > 10 µM (inactive) | > 10 µM (inactive) | > 10 | > 10 µM (inactive) | > 10 µM (inactive) | > 10 µM (inactive) | > 10 µM (inactive) | > 10 µM (inactive) |  | > 10 µM (inactive) |  | > 10 µM (inactive) | > 10 µM (inactive) | > 10 µM (inactive) | > 10 µM (inactive)
12 | N#CC(/N=N/c1ccccc1)c1nc2ccccc2o1 (stereo not given) | 30.7 µM (inactive) | 24.5 µM (inactive) | 35.7 µM (inactive) | 25.4 µM (inactive) | > 100 µM (inactive) | 8.13 µM (inactive) | > 100 | 61.4 µM (inactive) | 44.8 µM (inactive) | 25.4 µM (inactive) | > 100 µM (inactive) | 96.4 µM (inactive) | 21.7 µM (inactive) | 16.1 µM (inactive) | 27.4 µM (inactive) | 45.1 µM (inactive) | 11.2 µM (inactive) |  | > 100 µM (inactive)
13 | CN(C)c1nc2nonc2nc1Nc1ccccc1 | > 100 µM (inactive) | > 100 µM (inactive) | > 100 µM (inactive) | > 100 µM (inactive) | > 100 µM (inactive) | > 100 µM (inactive) | > 100 | > 100 µM (inactive) | > 100 µM (inactive) |  | > 100 µM (inactive) | > 100 µM (inactive) | > 100 µM (inactive) | > 100 µM (inactive) | > 100 µM (inactive) | > 100 µM (inactive) |  | > 100 µM (inactive) | > 100 µM (inactive)
14 | Cc1ccc(OCC2OC(n3cnc4nc(N)nc(Cl)c43)CC2Oc2ccc(C)cc2)cc1 (stereo not given) | 11.8 µM (inactive) | 15.7 µM (inactive) | 18.1 µM (inactive) | 17.7 µM (inactive) | 34.1 µM (inactive) | 14.9 µM (inactive) | 14.9 | 23.7 µM (inactive) | 15.8 µM (inactive) | 18.6 µM (inactive) | 36 µM (inactive) | 21.4 µM (inactive) | 22 µM (inactive) | 18.5 µM (inactive) | 21.3 µM (inactive) |  | 23.2 µM (inactive) | 15.7 µM (inactive) | 15.8 µM (inactive)
15 | C=C1C[C@@H]2CC[C@@]34CC5O[C@H]6C(O[C@H]7CC[C@H](CC(=O)O[C@@H]8[C@@H](C)[C@@H]9O[C@@H]%10C[C@]%11(C[C@@H]%12O[C@]%13(C[C@H](C)[C@@H]%14O[C@@H]%15CC(C(O)CO)O[C@@H]%15C[C@@H]%14O%13)C[C@H](C)[C@@H]%12O%11)O[C@@H]%10C[C@@H]9O[C@H]8CC8O[C@@H](CC[C@@H]1O2)C[C@@H](C)C8(O)CO)O[C@@H]7[C@@H]6O3)[C@H]5O4 (stereo not given in full) | > 1 µM (active) | > 1 µM (active) | 0.986 µM (active) | > 0.859 µM (active) | > 1 µM (active) | > 1 µM (active) | > 0.638 |  | > 0.944 µM (active) | 0.594 µM (active) | > 0.959 µM (active) | 0.53 µM (active) | 0.627 µM (active) | 0.516 µM (active) | > 0.891 µM (active) | > 0.933 µM (active) | > 1 µM (active) | 0.48 µM (active) | > 1 µM (active)
